In patent publication US20160338992A1, “COMPOSITE COMPRISING 3'-HYDROXYGENISTEIN AND USE FOR INHIBITION OF MELANOGENESIS” (BIO-JOURDENESS INTERNATIONAL GROUP CO., LTD., priority 2015, published 2016):

How the values were obtained:
tyrosinase [1] = assay: Effect on tyrosinase activity (L-DOPA to dopachrome, absorbance at 475 nm); format: biochemical; conditions: for effect on tyrosinase activity (FIG. 2): 10-40 μM
Procedure: Tyrosinase plays an important role on melanogenesis. Thus the effect of 3′-hydroxygenistein on tyrosinase is detected. First dissolve 1 μL 3′-hydroxygenistein in DMSO (dimethyl sulfoxide) and mixed with 5 μL tyrosinase in a 94 μL, 50 mM PBS (pH 6.8). Add 0.9 mL, 2.5 mM L-DOPA (dissolved in 50 mM PBS, pH 6.8) into the mixture and react at 25° C. for 10 minutes.

B16 melanoma 4A5 cells [2] = assay: Cell viability by MTT assay; format: cell-based, mouse; conditions: 48 hours
Procedure: In order to confirm a non-cytotoxic concentration range of 3′-hydroxygenistein, MTT and crystal violet staining assays are used to detect cell viability of 3′-hydroxygenistein. A mouse melanoma cell line (B16 melanoma 4A5 obtained from bioresource Collection and Research Center, Food Industry Research and Development Institute) is cultured in DMEM (Dulbecco's Modified Eagle Medium) containing 10% (v/v) fetal bovine serum (FBS) in a 5% CO2 humidified incubator for 24 hours. The B16 melanoma 4A5 cells are treated with 3′-hydroxygenistein for 48 hours. Then remove the culture medium, add 1 mg/mL MTT dissolved in PBS and incubate for 2 hours. Next remove MTT solution and add DMSO. At last, use spectrophotometer ((U-5100; Hitachi, Japan) to detect absorbance of dissolved formazan crystals at 475 nm. The cell viability is expressed as percentage of control (% of control).

B16 melanoma 4A5 cells [3] = assay: Melanin content in IBMX-stimulated cells; format: cell-based, mouse; conditions: 400 μM IBMX, 2 days; for effect on melanogenesis (FIG. 4): 10 μM and 20 μM
Procedure: In this experiment, 3-isobutyl-1-methylxanthine (IBMX) is used as a melanogenic-stimulating agent while genistein and danazol with inhibitory effect on melanogenesis are used as positive controls. The B 16 melanoma 4A5 cells are cultured in DMEM containing 10% (v/v) fetal bovine serum (FBS) in a 5% CO2 humidified incubator at 37° C. Then seed cells in a 24-well plate with proper density. After one day, the cells are treated with 5 μM, 10 μM, and 20 μM 3′-hydroxygenistein respectively in the presence of 400 μM IBMX and cultured for 2 days. Then collect and wash the cells with PBS (Phosphate Buffered Saline) buffer twice. The cell pellets are dissolved in lysis buffer containing 20 mM trisodium phosphate (pH6.8) and 1% Triton X-100. After centrifugation at 15,000×g for 15 minutes, melanin pellets are dissolved in 1N NaOH containing 20% DMSO at 95° C. for 1 hour. Use spectrophotometer ((U-5100; Hitachi, Japan) to detect absorbance of melanin at 490 nm. The melanin content is expressed as percentage of the control group (IBMX group).

tyrosinase [4] = conditions: cited from earlier work
melanin cells = conditions: 30 μM to 60 μM; cited from earlier work

O=c1c(-c2ccc(O)c(O)c2)coc2cc(O)cc(O)c12 [3′-hydroxygenistein]
effect on tyrosinase activity (FIG. 2) (tyrosinase [1]): inhibits tyrosinase activity in a dose-dependent manner | IC50 (tyrosinase [1]; L-DOPA substrate, 25° C., 10 minutes, pH 6.8, read-out: half-inhibitory concentration (IC50) in inhibiting tyrosinase): 15.9 µM | tyrosinase inhibitory activity, times stronger than kojic acid (tyrosinase [1]; ratio of IC50 values, kojic acid as the standard): 11 times | cytotoxicity (cell survival rate, FIG. 3) (B16 melanoma 4A5 cells [2]; 40 μM): shows cytotoxicity | cytotoxicity (cell survival rate, FIG. 3) (B16 melanoma 4A5 cells [2]; concentration between 10 μM and 20 μM): no cytotoxicity | effect on melanogenesis (FIG. 4) (B16 melanoma 4A5 cells [3]): show inhibition of melanogenesis | melanin content, percentage of the control group (IBMX group) (B16 melanoma 4A5 cells [3]; 20 μM): 50.5% | inhibitory effect on melanogenesis compared with danazol (B16 melanoma 4A5 cells [3]): better than danazol

O=c1c(-c2ccc(O)cc2)coc2cc(O)c(O)cc12 [6-OHDe, 6,7,4′-trihrdroxyisoflavone]
tyrosinase inhibitory activity, times stronger than glycitein (tyrosinase [4]; Taiwanese Pat. No. 1312686): 25 times | tyrosinase inhibition activity (literature) (tyrosinase [4]): have tyrosinase inhibition activity

O=c1c(-c2ccc(O)cc2)coc2c(O)c(O)ccc12 [8-OHDe, 7,8,4′-trihrdroxyisoflavone]
tyrosinase inhibitory activity, times stronger than daidzein (tyrosinase [4]; Taiwanese Pat. No. 1312686): 30 times | tyrosinase inhibition activity (literature) (tyrosinase [4]): have tyrosinase inhibition activity

O=c1c(-c2ccc(O)cc2)coc2c(O)c(O)cc(O)c12 [8-hydroxygenistein, 5,7,8,4′-tetrahydroxyisoflavone]
tyrosinase inhibitory activity, times stronger than genistein (tyrosinase [4]; Taiwanese Pat. No. 1312686): 90 times

O=c1c(-c2ccc(O)cc2)coc2cc(O)ccc12 [daidzein]
tyrosinase inhibition activity (literature) (tyrosinase [4]): doesn't have such activity

O=c1c(-c2ccc(O)cc2)coc2cc(O)cc(O)c12 [genistein]
effect on tyrosinase activity (FIG. 2) (tyrosinase [1]): no tyrosinase inhibitory activity | effect on melanogenesis (FIG. 4) (B16 melanoma 4A5 cells [3]): no inhibitory effect on melanogenesis | effect on melanin production (literature) (melanin cells): induce melanin cells to produce more melanin
